The values below come from EPA's ToxValDB 9.5 (doi:10.2903/j.efsa.2016.4374).

In brackets after ≈: the same amount, converted by molar mass.

One data set deals with Anas platyrhynchos. To be noted: acute; oral; unspecified; mortality.
Another data set has as its system Apis mellifera. The note with it: acute, duration: 48 hours, mortality.
The subject of a further data set is Bibionidae. The note with it: chronic/long-term; growth.
The next data set deals with Canidae. The note with it: subchronic; duration: 90 days; oral; Dog Other; organ weight.
The subject of another data set is Cyprinus carpio. The note with it: acute; mortality.
The next data set has as its system Danio rerio. The note with it: chronic; growth.
Another data set relates to Daphnia magna. To be noted: chronic/long-term; reproduction.
The next data set concerns Folsomia candida. The note with it: chronic/long-term; duration: 28 days; mortality.
A further data set relates to Hypoaspis aculeifer. To be noted: chronic/long-term; duration: 14 days; mortality.
The subject of a further data set is Myriophyllum spicatum. To be noted: acute; growth.
Another data set relates to Pleurozium sp. To be noted: acute; growth.
For a further data set, the system named is Tagia sp. To be noted: chronic/long-term; duration: 56 days; reproduction.
A further data set relates to Typhlodromus pyri. Kind of data set: LR50; higher = less toxic. The note with it: not reported; mortality.

As usually defined, the NOAEL is the highest dose or exposure tested at which no adverse effect was seen. Broadly, the LC50 is the concentration lethal to half of the exposed cells or organisms.

As to `CCOC1Oc2ccc(OS(C)(=O)=O)cc2C1(C)C` (centres undefined) [Ethofumesate], the LD50 with Anas platyrhynchos was 3780 mg/kg-day; in the data set with Apis mellifera (dermal), more than 50 µg/piece; in the data set on Apis mellifera (oral, unspecified), more than 50 µg/piece; in the data set with Colinus virginianus (acute, oral, mortality), 3780 mg/kg-day; in the data set with Rattus norvegicus (acute, oral, mortality), more than 5000 mg/kg-day. In addition, the NOEC with Bibionidae amounted to 3.82 mg/L; in the data set with Danio rerio, 0.156 mg/L; in the data set with Daphnia magna it was 0.25 mg/L; in the data set on Folsomia candida, 13.3 mg/kg; in the data set with Hypoaspis aculeifer, 22.1 mg/kg; with Myriophyllum spicatum, 0.25 mg/L. Further, the NOEC in the data set with Pleurozium sp. was 9.68 mg/L; in the data set on Tagia sp. it was 12.5 mg/kg. For the same molecule, the NOAEL came to 250 mg/kg-day in the data set with Canidae; 101 mg/kg-day in the data set on Rattus norvegicus (chronic, duration: 2 years, oral, F, organ weight); 60.9 mg/kg-day in the data set on Rattus norvegicus (reproduction developmental, body weight). This molecule also showed an NOEL in the data set with Colinus virginianus (reproduction developmental) of 265 mg/kg-day. This molecule also returned an LC50 in the data set on Cyprinus carpio of 10.9 µg/mL (≈ 38.1 µM). The LR50 with Typhlodromus pyri was more than 1000 g/ha.
